Reference: PubChem BioAssay (NCI)
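Interpolation was linear, between the two tested concentrations surrounding the appropriate level; five concentrations were tested over 48 hours in 96-well plates. Definition used: TGI = concentration required for complete inhibition of growth.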

Assays:
Experiment in all cases: DTP human tumour cell line panel, 48 h
HL-60(TB) leukemia = tested on: HL-60(TB) leukemia
U251 CNS = tested on: U251 CNS
RPMI-8226 leukemia = tested on: RPMI-8226 leukemia
SK-MEL-5 melanoma = tested on: SK-MEL-5 melanoma
K-562 leukemia = tested on: K-562 leukemia
EKVX NSCLC = tested on: EKVX NSCLC
OVCAR-3 ovarian = tested on: OVCAR-3 ovarian
A549 NSCLC = tested on: A549 NSCLC
LOX IMVI melanoma = tested on: LOX IMVI melanoma
PC-3 prostate = tested on: PC-3 prostate
T-47D breast = tested on: T-47D breast
ACHN renal = tested on: ACHN renal
SW-620 colon = tested on: SW-620 colon
MOLT-4 leukemia = tested on: MOLT-4 leukemia
HCC-2998 colon = tested on: HCC-2998 colon
SNB-75 CNS = tested on: SNB-75 CNS
M14 melanoma = tested on: M14 melanoma
SK-MEL-2 melanoma = tested on: SK-MEL-2 melanoma
HS 578T breast = tested on: HS 578T breast
CCRF-CEM leukemia = tested on: CCRF-CEM leukemia
HT29 colon = tested on: HT29 colon
RXF 393 renal = tested on: RXF 393 renal
SN12C renal = tested on: SN12C renal
SNB-19 CNS = tested on: SNB-19 CNS
KM12 colon = tested on: KM12 colon
NCI-H226 lung = tested on: NCI-H226 lung
A498 renal = tested on: A498 renal
MCF7 breast = tested on: MCF7 breast
HCT-15 colon = tested on: HCT-15 colon
OVCAR-5 ovarian = tested on: OVCAR-5 ovarian
COLO 205 colon = tested on: COLO 205 colon
MDA-N = tested on: MDA-N
HOP-92 NSCLC = tested on: HOP-92 NSCLC
SF-539 CNS = tested on: SF-539 CNS
CAKI-1 renal = tested on: CAKI-1 renal
SF-268 CNS = tested on: SF-268 CNS
MDA-MB-435 = tested on: MDA-MB-435
SK-OV-3 ovarian = tested on: SK-OV-3 ovarian
UACC-62 melanoma = tested on: UACC-62 melanoma
BT-549 breast = tested on: BT-549 breast
OVCAR-8 ovarian = tested on: OVCAR-8 ovarian
HOP-62 NSCLC = tested on: HOP-62 NSCLC
SK-MEL-28 melanoma = tested on: SK-MEL-28 melanoma
NCI-H23 lung = tested on: NCI-H23 lung
HCT-116 colon = tested on: HCT-116 colon
MALME-3M melanoma = tested on: MALME-3M melanoma
SF-295 CNS = tested on: SF-295 CNS
UACC-257 melanoma = tested on: UACC-257 melanoma
MDA-MB-231 breast = tested on: MDA-MB-231 breast
SR leukemia = tested on: SR leukemia
NCI/ADR-RES ovarian = tested on: NCI/ADR-RES ovarian
786-0 renal = tested on: 786-0 renal
TK-10 renal = tested on: TK-10 renal
DU-145 prostate = tested on: DU-145 prostate
OVCAR-4 ovarian = tested on: OVCAR-4 ovarian
IGROV1 ovarian = tested on: IGROV1 ovarian
UO-31 renal = tested on: UO-31 renal
NCI-H460 lung = tested on: NCI-H460 lung
NCI-H522 lung = tested on: NCI-H522 lung

## COC(=O)C1=C(O)C(C(=O)OC)[C@]2(O)[C@H](C(=O)OC)[C@H]1C[C@@H](c1ccc(F)cc1)[C@H]2C(=O)OC (stereo not given in full)
HL-60(TB) leukemia
  TGI: 7.24 µM
U251 CNS
  TGI: 31.9 µM
RPMI-8226 leukemia
  TGI: 69.7 µM
SK-MEL-5 melanoma
  TGI: 25.2 µM
K-562 leukemia
  TGI: > 100 µM
EKVX NSCLC
  TGI: 41.3 µM
OVCAR-3 ovarian
  TGI: 35.5 µM
A549 NSCLC
  TGI: > 100 µM
LOX IMVI melanoma
  TGI: 42.1 µM
PC-3 prostate
  TGI: 33.2 µM
T-47D breast
  TGI: > 100 µM
ACHN renal
  TGI: 43.5 µM
SW-620 colon
  TGI: 53.4 µM
MOLT-4 leukemia
  TGI: > 100 µM
HCC-2998 colon
  TGI: 28.7 µM
SNB-75 CNS
  TGI: 73.2 µM
M14 melanoma
  TGI: 27.5 µM
SK-MEL-2 melanoma
  TGI: 19 µM
HS 578T breast
  TGI: 81.8 µM
CCRF-CEM leukemia
  TGI: 70.7 µM
HT29 colon
  TGI: 34 µM
RXF 393 renal
  TGI: 26.5 µM
SN12C renal
  TGI: 26.3 µM
SNB-19 CNS
  TGI: > 100 µM
KM12 colon
  TGI: 47.9 µM
NCI-H226 lung
  TGI: 49.9 µM
A498 renal
  TGI: 35.1 µM
MCF7 breast
  TGI: > 100 µM
HCT-15 colon
  TGI: 40.8 µM
OVCAR-5 ovarian
  TGI: 37.5 µM
COLO 205 colon
  TGI: 29.6 µM
MDA-N
  TGI: 17.1 µM
HOP-92 NSCLC
  TGI: > 100 µM
SF-539 CNS
  TGI: 41 µM
CAKI-1 renal
  TGI: > 100 µM
SF-268 CNS
  TGI: 95 µM
MDA-MB-435
  TGI: 61 µM
SK-OV-3 ovarian
  TGI: 77.6 µM
UACC-62 melanoma
  TGI: 33.7 µM
BT-549 breast
  TGI: 65.9 µM
OVCAR-8 ovarian
  TGI: 86.8 µM
HOP-62 NSCLC
  TGI: 68.5 µM
SK-MEL-28 melanoma
  TGI: 27.4 µM
NCI-H23 lung
  TGI: 31 µM
HCT-116 colon
  TGI: 20.3 µM
MALME-3M melanoma
  TGI: 28 µM
SF-295 CNS
  TGI: 43.9 µM
UACC-257 melanoma
  TGI: 41.9 µM
MDA-MB-231 breast
  TGI: > 100 µM
SR leukemia
  TGI: 47.5 µM
NCI/ADR-RES ovarian
  TGI: 36.8 µM
786-0 renal
  TGI: 32 µM
TK-10 renal
  TGI: 57.5 µM
DU-145 prostate
  TGI: 67.6 µM
OVCAR-4 ovarian
  TGI: > 100 µM
IGROV1 ovarian
  TGI: 59.8 µM
UO-31 renal
  TGI: 29.1 µM
NCI-H460 lung
  TGI: 63.1 µM

## COC(=O)c1c(O)ccc2c1c1c(n2Cc2ccccc2)C(=O)c2ccccc2C1=O
HL-60(TB) leukemia
  TGI: 47.2 µM
U251 CNS
  TGI: 29.2 µM
RPMI-8226 leukemia
  TGI: 29.2 µM
SK-MEL-5 melanoma
  TGI: 31.9 µM
K-562 leukemia
  TGI: 36.3 µM
EKVX NSCLC
  TGI: 36.6 µM
OVCAR-3 ovarian
  TGI: 47.5 µM
A549 NSCLC
  TGI: 22.6 µM
LOX IMVI melanoma
  TGI: 41.6 µM
NCI-H522 lung
  TGI: 23.8 µM
PC-3 prostate
  TGI: 29.4 µM
T-47D breast
  TGI: 42.1 µM
ACHN renal
  TGI: 25.3 µM
SW-620 colon
  TGI: 46 µM
MOLT-4 leukemia
  TGI: 25.3 µM
HCC-2998 colon
  TGI: 17.9 µM
SNB-75 CNS
  TGI: 29.1 µM
M14 melanoma
  TGI: 37.4 µM
SK-MEL-2 melanoma
  TGI: 27.7 µM
HS 578T breast
  TGI: 43.3 µM
CCRF-CEM leukemia
  TGI: 46.8 µM
HT29 colon
  TGI: 22.6 µM
RXF 393 renal
  TGI: 37 µM
SN12C renal
  TGI: 28.1 µM
SNB-19 CNS
  TGI: 28.7 µM
KM12 colon
  TGI: 29.7 µM
NCI-H226 lung
  TGI: 39.6 µM
MCF7 breast
  TGI: 35 µM
HCT-15 colon
  TGI: 30.3 µM
OVCAR-5 ovarian
  TGI: 39.2 µM
COLO 205 colon
  TGI: 3.32 µM
MDA-N
  TGI: 56.3 µM
HOP-92 NSCLC
  TGI: 27.1 µM
SF-539 CNS
  TGI: 29.1 µM
CAKI-1 renal
  TGI: 36.9 µM
SF-268 CNS
  TGI: 33 µM
MDA-MB-435
  TGI: 28 µM
SK-OV-3 ovarian
  TGI: 30.1 µM
BT-549 breast
  TGI: 31.6 µM
OVCAR-8 ovarian
  TGI: 26.2 µM
HOP-62 NSCLC
  TGI: 38.8 µM
SK-MEL-28 melanoma
  TGI: 31.7 µM
NCI-H23 lung
  TGI: 31.6 µM
HCT-116 colon
  TGI: 27.8 µM
MALME-3M melanoma
  TGI: 54.7 µM
SF-295 CNS
  TGI: 36.3 µM
UACC-257 melanoma
  TGI: 32.8 µM
MDA-MB-231 breast
  TGI: 32.2 µM
SR leukemia
  TGI: 50.1 µM
NCI/ADR-RES ovarian
  TGI: 28.8 µM
786-0 renal
  TGI: 32.1 µM
TK-10 renal
  TGI: 31.8 µM
DU-145 prostate
  TGI: 49.9 µM
OVCAR-4 ovarian
  TGI: 24.3 µM
IGROV1 ovarian
  TGI: 25.8 µM
UO-31 renal
  TGI: 22.1 µM
NCI-H460 lung
  TGI: 59.8 µM
